{
  "source": "patent US20150366839A1",
  "about": "“Schisantherin A for the treatment of neurodegenerative diseases” (priority 2014, published 2015)",
  "key": {"SH-SY5Y cells": {"system": "SH-SY5Y cells", "test": "MTT neuroprotection against MPP+-induced cell damage", "format": "cell-based", "procedure": "Human neuroblastoma SH-SY5Y cells were purchased from the American Type Culture Collection (ATCC, Manassas, Va., USA) and cultured in a humidified 5% (v/v) CO2 atmosphere in 37° C. in Dulbecco's Modified Eagle Medium (DMEM) (Life technologies, NY, USA) supplemented with 10% FBS, 1% penicillin (100 U/mL) and streptomycin (100 μg/mL). All experiments were carried out 48 h after the cells were seeded.\nIn another study, SH-SY5Y cells were seeded in 96-well plates (1×10^4 cells/well) for 48 h. SH-SY5Y cells were pre-treated with different concentrations of the five lignans for 12 h and the cell viability was checked by MTT assay. SH-SY5Y cells were pre-treated with different concentrations of the five lignans for 12 h and then exposed to 2 mM MPP or vehicle for 36 h. Cells were incubated at 37° C. for 4 h in 0.5 mg/mL MTT solution (prepared in serum free DMEM medium). The medium was then discarded and 100 μL of DMSO was added to each well to dissolve the violet-formazan crystals. The absorbance at 570 nm with 655 nm as a reference wavelength was measured by a multi-label counter (Wallac VICTOR3TMV, Perkin Elmer, Netherlands). Cell viability was expressed as a percentage of the value of the cells without MPP treatment. The LC50 and EC50 were calculated by GraphPad Prism V5.0 (GraphPad Software, Inc., San Diego, Calif.).\nTo evaluate the cytotoxicity of five selected lignans of S. chinensis, SH-SY5Y cells were treated with various concentrations of the tested compounds for 12 h and the cell viability was measured using the MTT assay. […] To further study the neuroprotective activities of the five lignans in vitro, cells were treated with various concentrations of the tested compounds for 12 h before exposed to MPP^+. […] Values represent mean±S.D. ###P<0.005 versus control group; *p<0.05, **p<0.01 and *** p<0.005 versus MPP group. […] The therapeutic index of SchiA and SC were 14.9 and 8.8, respectively.\nThe inventors also investigated the contribution of the PI3K/Akt pathway in the neuroprotective effects of SchiA. The inventors measured phosphorylation-Akt (p-Akt) levels after pre-treated with 60 μM SchiA for 12 h and then exposed to 2 mM MPP for another 36 h. […] And MPP^+-induced down-regulation of Akt expressions was inhibited by SchiA treatment. […] To further validate whether the activation of PI3K/Akt signaling pathway, the inventors determined the blocking effect of PI3K/Akt inhibitor such as AKT inhibitor IV on the in vitro neuroprotective effect of SchiA. SH-SY5Y cells were pre-incubated with Akt inhibitor IV (2 μM) for 1 h and then treated with SchiA for 12 h. Drug-treated cells were further treated with 2 mM MPP for another 36 h, MTT assay was used to determinate cell viability."}, "CREB": {"system": "CREB", "test": "p-CREB, CREB and Bcl-2 time course with SchiA alone, Western blot", "format": "cell-based, Human", "details": "60 μM alone", "procedure": "After treatment, SH-SY5Y cells were washed three times with PBS and then lysis with RIPA lysis buffer containing 1% PMSF and 1% Protease Inhibitor Cocktail and incubated for 30 min on ice. Cell lysates were centrifuged at 12,500 g for 20 min at 4° C. The supernatant was separated and the amount of protein was determined using the BCA protein assay kit (Thermo Scientific Pierce, USA). Protein samples (30 μg) were separated by SDS-PAGE (10% (w/v)) polyacrylamide gel and then transferred to a polyvinylidene difluoride (PVDF) membrane (Bio-Rad, Hercules, Calif.). Subsequently, the membrane was blocked with 5% (v/v) non-fat milk in PBST (PBS containing 0.1% Tween 20) for 1 h at room temperature. The blots were incubated overnight at 4° C. with primary antibodies. After three washes with PBST, the membranes were incubated with horseradish peroxidase-conjugated secondary antibodies (1:2000) in PBST with 5% non-fat milk for 1 h at room temperature. After repeated washes, proteins were visualized with an ECL advanced western blotting detection kit. […] Quantitative assessment of protein bands was done with Gel Doc™ XRS equipped with Quantity One software.\nTo investigate the effect of SchiA on the activation of the upstream targets of CREB in MPP^+-treated SH-SY5Y cells, the protein levels of p-CREB/CREB and were determined. […]"}, "DA neurons in zebrafish": {"system": "DA neurons in zebrafish", "test": "Anti-TH whole-mount immunostaining, 6-OHDA-induced DA neuron loss", "format": "in vivo", "details": "10 μM co-treatment, 250 μM 6-OHDA, 2 days", "procedure": "The wild type zebrafish was used for this study.\nZebrafish at one dpf were exposed to 250 μM 6-OHDA in the presence or absence of 10 μM Schi A or 3 μM nomifensine (Nom, a DAT (dopamine transporter) inhibitor used as a positive control) for 2 days. Then zebrafish were collected for immunostaining to detect the DA neurons. Zebrafish were fixed in 4% paraformaldehyde in PBS for 30 min, rinsed, and stored at −20° C. in 100% MtOH. Whole-mount immunostaining was done by standard methods (Zhang, Cheang et al. 2011). Briefly, paraformaldehyde fixed samples were blocked (2% goat serum and 0.1% BSA in PBST,) for 1 h at room temperature. A mouse monoclonal anti-tyrosine hydroxylase antibody (1:200 diluted in blocking buffer) was used as the primary antibody and incubated overnight with the sample at 4° C. […] Semi-quantification TH^+ cells were assessed by an investigator blinded to drug treatment history of zebrafish using Image-Pro Plus 6.0 software (Media Cybernetics, Silver Spring, Md., USA). Results are expressed as percentage of area of TH^+ cells in untreated control group.\nTo further evaluate the neuroprotective effect of SchiA in vivo, the inventors examined the DA neurons in zebrafish by whole-mount immunofluorescent staining with an antibody against tyrosine hydroxylase (TH). […] Data is expressed as percentage of the control group. […]"}},
  "data": [
    {"smiles": "COc1cc2c(c(OC)c1OC)-c1c(cc3c(c1OC)OCO3)C[C@H](C)[C@](C)(O)[C@H]2OC(=O)c1ccccc1", "note": "[SchiA, Schisantherin A]", "values": [
      {"measurement": "EC50", "setting": "SH-SY5Y cells; pre-treated 12 h, then 2 mM MPP+ 36 h", "value": 8.1, "unit": "µM"},
      {"measurement": "protection against MPP+-induced cell damage (cell viability)", "setting": "SH-SY5Y cells; various concentrations 12 h before MPP+", "value": "protect against MPP^+-induced cell damage in a dose-dependent manner"},
      {"measurement": "phosphorylation of CREB compared with 0 h", "setting": "CREB; after 3 h", "value": "about 1.5 fold"},
      {"measurement": "Bcl-2 expression", "setting": "CREB; from 3 h to 12 h", "value": "induced"},
      {"measurement": "6-OHDA-induced dopaminergic neuron loss (area of TH+ cells)", "setting": "DA neurons in zebrafish", "value": "attenuate the dopaminergic neuron loss induced by 6-OHDA almost to the normal level"}
    ]}
  ]
}
